Measurements published in ChEMBL document CHEMBL1136922, “Antitumor agents. 266. Design, synthesis, and biological evaluation of novel 2-(furan-2-yl)naphthalen-1-ol derivatives as potent and selective antibreast cancer agents” (2009).
Converted amounts (≈) assume the structure as drawn.

Experiments:
Type in all cases: functional
MCF7 = assay: Cytotoxicity against human MCF7 cells expressing estrogen receptor after 72 hrs by SRB assay; conditions: MCF7, 72 h, read-out: ED50 (the source's name)
SK-BR-3 = assay: Cytotoxicity against estrogen receptor deficient human SKBR3 cells overexpressing human epidermal growth factor receptor 2 after 72 hrs by SRB assay; conditions: SK-BR-3, 72 h, read-out: ED50 (the source's name)
KB = assay: Cytotoxicity against human KB cells after 72 hrs by SRB assay; conditions: read-out: ED50 (the source's name)
A549 = assay: Cytotoxicity against human A549 cells after 72 hrs by SRB assay; conditions: A549, 72 h, read-out: ED50 (the source's name)
ZR-75-1 [1] = assay: Cytotoxicity against human ZR-75-1 cells expressing estrogen receptor and HER2 after 72 hrs by SRB assay; conditions: ZR-75-1, 72 h, read-out: ED50 (the source's name)
DU-145 = assay: Cytotoxicity against human DU145 cells after 72 hrs by SRB assay; conditions: DU-145, 72 h, read-out: ED50 (the source's name)
MDA-MB-231 = assay: Cytotoxicity against estrogen receptor deficient human MDA-MB-231 cells after 72 hrs by SRB assay; conditions: MDA-MB-231, 72 h, read-out: ED50 (the source's name)
[2] = Cytotoxicity against vincristine-resistant human KBVIN cells after 72 hrs by SRB assay; conditions: read-out: ED50 (the source's name)
ZR-75-1 [3] = assay: Selectivity ratio of ED50 for human MCF7 cells expressing estrogen receptor to ED50 for human ZR-75-1 cells expressing estrogen receptor and HER2
ZR-75-1 [4] = assay: Selectivity ratio of ED50 for estrogen receptor deficient human SKBR3 cells overexpressing HER2 to ED50 for human ZR-75-1 cells expressing estrogen receptor and HER2

## Cc1coc2c1c(=O)oc1c3ccccc3ccc21
MCF7
  EC50: 4 µg/mL (≈ 16 µM)
SK-BR-3
  EC50: 1 µg/mL (≈ 4 µM)

## CCc1cccc2c(O)c(-c3oc(C)c(C)c3C(=O)O)ccc12
MCF7
  EC50: 8.5 µg/mL (≈ 27.4 µM)
SK-BR-3
  EC50: 10.4 µg/mL (≈ 33.5 µM)

## CCc1cccc2c(OC)c(-c3occ(C)c3C(=O)OC)ccc12
MCF7
  EC50: 2.5 µg/mL (≈ 7.71 µM)
KB
  EC50: 1.7 µg/mL (≈ 5.24 µM)
SK-BR-3
  EC50: 1.2 µg/mL (≈ 3.7 µM)
A549
  EC50: 1.5 µg/mL (≈ 4.62 µM)
ZR-75-1 [1]
  EC50: 1.3 µg/mL (≈ 4.01 µM)
DU-145
  EC50: 2.2 µg/mL (≈ 6.78 µM)
MDA-MB-231
  EC50: 2.3 µg/mL (≈ 7.09 µM)
[2]
  EC50: 1.3 µg/mL (≈ 4.01 µM)

## COc1cccc2c(O)c(-c3occ(C)c3C(=O)O)ccc12
MCF7
  EC50: > 20 µg/mL
ZR-75-1 [3]
  Ratio ED50: 33
ZR-75-1 [4]
  Ratio ED50: 6
KB
  EC50: 9.7 µg/mL (≈ 32.5 µM)
SK-BR-3
  EC50: 3.5 µg/mL (≈ 11.7 µM)
A549
  EC50: 10.1 µg/mL (≈ 33.9 µM)
ZR-75-1 [1]
  EC50: 0.6 µg/mL (≈ 2.01 µM)
DU-145
  EC50: 8.2 µg/mL (≈ 27.5 µM)
MDA-MB-231
  EC50: > 10 µg/mL
[2]
  EC50: 8.9 µg/mL (≈ 29.8 µM)

## Cc1coc(-c2ccc3ccccc3c2O)c1C(=O)O
MCF7
  EC50: 6 µg/mL (≈ 22.4 µM)
SK-BR-3
  EC50: 7 µg/mL (≈ 26.1 µM)

## CC/C(=C(\c1ccccc1)c1ccc(OCCN(C)C)cc1)c1ccccc1 [TAMOXIFEN]
MCF7
  EC50: 5 µg/mL (≈ 13.5 µM)
SK-BR-3
  EC50: 5 µg/mL (≈ 13.5 µM)

## Cc1cccc2c(OC(=O)c3ccoc3)cccc12
MCF7
  EC50: > 20 µg/mL
SK-BR-3
  EC50: > 20 µg/mL

## CCc1cccc2c(O)c(-c3occ(C)c3CO)ccc12
MCF7
  EC50: 12 µg/mL (≈ 42.5 µM)
SK-BR-3
  EC50: 12.8 µg/mL (≈ 45.3 µM)

## Cc1coc(-c2ccc3ccccc3c2O)c1CO
MCF7
  EC50: 7 µg/mL (≈ 27.5 µM)
SK-BR-3
  EC50: 9.5 µg/mL (≈ 37.4 µM)

## CCc1cccc2c(O)c(-c3occ(C)c3C(=O)O)ccc12
MCF7
  EC50: 3.3 µg/mL (≈ 11.1 µM)
ZR-75-1 [3]
  Ratio ED50: 10
ZR-75-1 [4]
  Ratio ED50: 3
KB
  EC50: 9.1 µg/mL (≈ 30.7 µM)
SK-BR-3
  EC50: 1 µg/mL (≈ 3.37 µM)
A549
  EC50: 10.6 µg/mL (≈ 35.8 µM)
ZR-75-1 [1]
  EC50: 0.3 µg/mL (≈ 1.01 µM)
DU-145
  EC50: 8.7 µg/mL (≈ 29.4 µM)
MDA-MB-231
  EC50: > 10 µg/mL
[2]
  EC50: 7 µg/mL (≈ 23.6 µM)

## CCc1cccc2c1ccc1c3occ(C)c3c(=O)oc21
MCF7
  EC50: 0.2 µg/mL (≈ 0.719 µM)
ZR-75-1 [3]
  Ratio ED50: 2
KB
  EC50: 13.1 µg/mL (≈ 47.1 µM)
SK-BR-3
  EC50: 0.1 µg/mL (≈ 0.359 µM)
A549
  EC50: 10.6 µg/mL (≈ 38.1 µM)
ZR-75-1 [1]
  EC50: 0.1 µg/mL (≈ 0.359 µM)
DU-145
  EC50: 15.9 µg/mL (≈ 57.1 µM)
MDA-MB-231
  EC50: > 10 µg/mL
[2]
  EC50: 13.2 µg/mL (≈ 47.4 µM)

## Cc1coc2c1c(=O)oc1cc(OC(C)C)ccc12
MCF7
  EC50: 12 µg/mL (≈ 46.5 µM)
SK-BR-3
  EC50: 10.8 µg/mL (≈ 41.8 µM)

## CCc1cccc2c(OC)c(-c3occ(C)c3C(=O)O)ccc12
MCF7
  EC50: 4.3 µg/mL (≈ 13.9 µM)
SK-BR-3
  EC50: 8.5 µg/mL (≈ 27.4 µM)

## COc1c(-c2occ(C)c2C(=O)O)ccc2ccccc12
MCF7
  EC50: 18 µg/mL (≈ 63.8 µM)
SK-BR-3
  EC50: 16.7 µg/mL (≈ 59.2 µM)

## CCc1coc(-c2ccc3c(CC)cccc3c2O)c1C(=O)O
MCF7
  EC50: 5.1 µg/mL (≈ 16.4 µM)
SK-BR-3
  EC50: 5.4 µg/mL (≈ 17.4 µM)

## COC(=O)c1c(C)coc1-c1ccc2ccccc2c1OC
MCF7
  EC50: 8.5 µg/mL (≈ 28.7 µM)
SK-BR-3
  EC50: 6.5 µg/mL (≈ 21.9 µM)

## C#CCOc1cc(=O)oc2c1ccc1ccccc12
MCF7
  EC50: 20 µg/mL (≈ 79.9 µM)
SK-BR-3
  EC50: 16 µg/mL (≈ 63.9 µM)

## CCOc1cccc2c(O)c(-c3occ(C)c3C(=O)O)ccc12
MCF7
  EC50: 7.5 µg/mL (≈ 24 µM)
SK-BR-3
  EC50: 6 µg/mL (≈ 19.2 µM)
